Several values for one entry are separate records, joined by “and”; a condition that tells them apart may be missing. Equal entries are not always repeated. Structures can show the parent of a compound that is named as a salt. A value given as a limit tells only on which side of the number the result lay.

For this experiment, the target named is T1, PDE-4A (Homo sapiens, UniProt P27815).
T1 construct: PDE-4A catalytic domain comprising amino acids 342-704; made in house; host or cells: Escherichia coli
T1 sequence (P27815 342-704): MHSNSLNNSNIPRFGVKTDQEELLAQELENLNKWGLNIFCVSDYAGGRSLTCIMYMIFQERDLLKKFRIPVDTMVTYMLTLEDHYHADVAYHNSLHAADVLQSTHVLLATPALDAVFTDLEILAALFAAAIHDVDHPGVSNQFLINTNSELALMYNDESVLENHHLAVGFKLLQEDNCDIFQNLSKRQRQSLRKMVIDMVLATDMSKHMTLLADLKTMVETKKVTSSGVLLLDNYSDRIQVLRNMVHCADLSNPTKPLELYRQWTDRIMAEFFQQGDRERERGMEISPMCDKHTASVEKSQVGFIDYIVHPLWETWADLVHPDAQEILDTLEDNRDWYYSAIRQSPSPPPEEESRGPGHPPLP
Briefly: PDE-4A inhibitory assay (SPA). It is filed as biochemical. From the text: Human recombinant PDE-4A catalytic domain comprising amino acids 342-704 was cloned into Escherichia coli and expressed, as described by W. Richter et al., Protein Expression and Purification (2000) 19: 375-383. The other posphodiesterases were either obtained from cell lines of human origin (TPH1 monocytes line for PDE-1, MCF7 for PDE-5) or expressed recombinantly in sf9 insect cells (for PDE-3A, PDE-3B, PDE-7A and PDE-4D) in accordance with an adapted method by Luckow, V. A. et al., in: Recombinant DNA Technology & Applications., (1991) eds. Prokop, Bajpai, R. K. & Ho, C. S., pp 97-152.
The phosphodiesterase activity was determined by the SPA assay as described by the manufacturer Amersham Biosciences and by Horton J. K and Baxendale P. M., Methods Mol. Biol. (1995) 41: 91-105.
The reaction mixtures contained 100 mM Tris-HCl (pH 7.5), 5 mM MgCl2, 3.8 mM 2-mercaptoethanol, and 1 μM cAMP or cGMP as a substrate, the inhibitors at different concentrations and also further components required for the detection of the individual isoenzymes (see below). The reaction was started by adding the enzyme. The operating volume is 100 μl in the wells of a white 96-Well microtiter plate. The test substances were produced as stock solutions in DMSO. The DMSO concentration in the reaction batch was 1% v/v. The PDE activity is not impaired with this DMSO concentration. Having started the reaction by the addition of enzyme, the samples were incubated at 22° C. for 20 min. The reaction was stopped by the addition of SPA bead suspension which contains the zinc sulfate concentration provided according to the manufacturer. Then, the beads are allowed to sediment for 30 min and the plates are analyzed on the luminescence microtiter plate reader Fluostar Optima (BMG Labtechologies).
[^3H]-cAMP was used as a substrate for determining the activity of PDE-2, -3, -4 and -7 and [^3H]-cGMP for determining the activity of PDE-5. The non-specific enzyme activities were determined in the presence of 100 μM rolipram (for PDE-4) and in the presence of 100 μM IBMX (for PDE-3 and -5) and subtracted from the test values. The incubation samples of the PDE-3 assay contain 10 μM rolipram to inhibit possible contaminations by PDE-4. The PDE-2 activity is tested using a SPA assay by Amersham Biosciences in the presence of the PDE-2 activator 5 μM cGMP. […] The selectivity as to PDEs 2, 3 and 5 has a factor of 100 to 10 000.
As usually defined, the IC50 is the concentration at which inhibition is half-maximal. Low readings indicate higher potency, high ones lower potency. For the compound `Cc1cc(-c2ccccc2)nc2sc3c(N4CCNCC4)nc(OCC(F)F)nc3c12` [2-(2,2-Difluoro-ethoxy)-9-methyl-7-phenyl-4-(piperazin-1-yl)-pyrido[3′,2′:4,5]thieno[3,2-d]pyrimidine], the IC50 fell in the range of 2 to 50 nM.

In turn, `CCc1cc(-c2ccc(C)cc2)nc2sc3c(N4CCNCC4)nc(OCCO)nc3c12` [2-(2-Hydroxy-ethoxy)-9-ethyl-7-(4-methyl-phenyl)-4-(piperazin-1-yl)-pyrido[3′,2′:4,5]thieno[3,2-d]pyrimidine] came in with an IC50 of 2 to 50 nM. Compound `CCOc1nc(N2CCNCC2)c2sc3nc(C(C)C)cc(C(C)C)c3c2n1` [2-Ethoxy-7,9-di-iso-propyl-4-(piperazin-1-yl)-pyrido[3′,2′:4,5]thieno[3,2-d]pyrimidine] came in with an IC50 of 2 to 50 nM. The value for `CCOc1ccc(-c2cc(CC)c3c(n2)sc2c(N4CCNCC4)nc(OCC)nc23)cc1` [2-Ethoxy-7-(4-ethoxy-phenyl)-9-ethyl-4-(piperazin-1-yl)-pyrido[3′,2′:4,5]thieno[3,2-d]pyrimidine] was less than 2 nM. Then `CCOc1nc(N2CCNCC2)c2sc3nc(C)cc(-c4ccccc4)c3c2n1` [2-Ethoxy-7-methyl-9-phenyl-4-(piperazin-1-yl)-pyrido[3′,2′:4,5]thieno[3,2-d]pyrimidine], with 2 to 50 nM; and `CCOc1nc(N2CCNCC2)c2sc3nc(-c4ccc5c(c4)OCCO5)cc(CC)c3c2n1` [2-Ethoxy-9-ethyl-7-(2,3-dihydrobenzo[b][1,4]dioxin-6-yl)-4-(piperazin-1-yl)-pyrido[3′,2′:4,5]thieno[3,2-d]pyrimidine], with less than 2 nM; and `CCOc1nc(N2CCNCC2)c2sc3nc(-c4ccc(C)cc4)cc(CC)c3c2n1` [2-Ethoxy-9-ethyl-7-(4-methyl-phenyl)-4-(piperazin-1-yl)-pyrido[3′,2′:4,5]thieno[3,2-d]pyrimidine], with < 2 nM and 2 to 50 nM. In turn, `CCOc1nc(N2CCNCC2)c2sc3nc(-c4ccc5c(c4)OCO5)cc(C)c3c2n1` [2-Ethoxy-9-methyl-7-(3,4-methylenedioxyphenyl)-4-piperazin-1-yl-pyrido[3′,2′:4,5]thieno-[3,2-d]pyrimidine] came in with an IC50 of 2 to 50 nM. Then `CCOc1nc(N2CCNCC2)c2sc3nc(-c4ccc(C)cc4)cc(C)c3c2n1` [2-Ethoxy-9-methyl-7-(4-methyl-phenyl)-4-(piperazin-1-yl)-pyrido[3′,2′:4,5]thieno[3,2-d]pyrimidine], with 2 to 50 nM; and `CCOc1nc(N2CCNCC2)c2sc3nc(N4CCOCC4)cc(C)c3c2n1` [2-Ethoxy-9-methyl-7-morpholino-4-(piperazin-1-yl)-pyrido[3′,2′:4,5]thieno[3,2-d]pyrimidine], with 2 to 50 nM; and `CCOc1nc(N2CCNCC2)c2sc3nc(-c4cccs4)cc(C)c3c2n1` [2-Ethoxy-9-methyl-7-thien-2-yl-9-methyl-4-(piperazin-1-yl)-pyrido[3′,2′:4,5]thieno[3,2-d]pyrimidine], with 2 to 50 nM. The value for `CCOc1nc(N2CCNCC2)nc2c1sc1nc(-c3ccc(-c4ccc(C(=O)OC)cc4N)cc3)nc(C)c12` [2′-Amino-4-(4-ethoxy-9-methyl-2-piperazin-1-yl-thieno[2,3-d:4,5-d′]dipyrimidin-7-yl)-biphenyl-4′-carboxylic acid methyl ester] was less than 2 nM; that for `CCOc1nc(N2CCNCC2)nc2c1sc1nc(-c3ccc(-c4ccc(C(=O)O)cc4N)cc3)nc(C)c12` [2′-Amino-4-(4-ethoxy-9-methyl-2-piperazin-1-yl-thieno[2,3-d:4,5-d′]dipyrimidin-7-yl)-biphenyl-4′-carboxylic acid sodium salt] was 2 to 50 nM; that for `Cc1cc(-c2ccccc2)nc2sc3c(OCC(F)F)nc(N4CCNCC4)nc3c12` [4-(2,2-Difluoro-ethoxy)-9-methyl-7-phenyl-2-(piperazin-1-yl)-pyrido[3′,2′:4,5]thieno[3,2-d]pyrimidine] was 2 to 50 nM. The compound `Cc1cc(-c2ccccc2)nc2sc3c(OCCO)nc(N4CCNCC4)nc3c12` [4-(2-Hydroxy-ethoxy)-9-methyl-7-phenyl-2-(piperazin-1-yl)-pyrido[3′,2′:4,5]thieno[3,2-d]pyrimidine] yielded an IC50 of 2 to 50 nM. The value for `CCOc1nc(N2CCNCC2)nc2c1sc1nc(-c3ccc(-c4cccc(C(=O)OC)c4)cc3)nc(C)c12` [4-(4-Ethoxy-9-methyl-2-piperazin-1-yl-thieno[2,3-d:4,5-d′]dipyrimidin-7-yl)-biphenyl-3′-carboxylic acid methyl ester] was 2 to 50 nM. With `CCOc1nc(N2CCNCC2)nc2c1sc1nc(-c3ccc(-c4cccc(C(=O)O)c4)cc3)nc(C)c12` [4-(4-Ethoxy-9-methyl-2-piperazin-1-yl-thieno[2,3-d:4,5-d′]dipyrimidin-7-yl)-biphenyl-3′-carboxylic acid potassium salt], the IC50 was 2 to 50 nM. Then `CCOC(=O)c1ccc(-c2ccc(-c3nc(C)c4c(n3)sc3c(OCC)nc(N5CCNCC5)nc34)cc2)cc1` [4-(4-Ethoxy-9-methyl-2-piperazin-1-yl-thieno[2,3-d:4,5-d′]dipyrimidin-7-yl)-biphenyl-4′-carboxylic acid ethyl ester], with 2 to 50 nM; and `CCOc1nc(N2CCNCC2)nc2c1sc1nc(-c3ccc(-c4ccc(C(=O)O)cc4)cc3)nc(C)c12` [4-(4-Ethoxy-9-methyl-2-piperazin-1-yl-thieno[2,3-d:4,5-d′]dipyrimidin-7-yl)-biphenyl-4′-carboxylic acid sodium salt], with 2 to 50 nM; and `CCOc1nc(N2CCNCC2)nc2c1sc1nc(-c3ccc(NC(=O)OC)cc3)cc(C(F)(F)F)c12` [4-(4-Ethoxy-9-trifluoromethyl-2-piperazin-1-yl-pyrido[3′,2′:4,5]thieno[3,2-d]pyrimidin-7-yl)-phenyl-carbamic acid methyl ester], with less than 2 nM.

Compound `CCOc1nc(N2CCNCC2)nc2c1sc1nc(-c3ccc(N4CCCCC4)cc3)cc(C(F)(F)F)c12` [4-Ethoxy-2-(piperazin-1-yl)-7-(4-(piperidin-1-yl)phenyl)-9-trifluoromethyl-pyrido[3′,2′:4,5]thieno[3,2-d]pyrimidine] returned an IC50 of less than 2 nM. For `CCOc1nc(N2CCNCC2)nc2c1sc1nc(-c3ccccn3)cc(C(F)(F)F)c12` [4-Ethoxy-2-piperazin-1-yl-7-(2-pyridyl)-9-trifluoromethyl-pyrido[3′,2′:4,5]thieno[3,2-d]pyrimidine], the half-maximal inhibitory concentration (IC50) lay within 2 to 50 nM. With `CCOc1nc(N2CCNCC2)nc2c1sc1nc(-c3cc(OC)c(OC)c(OC)c3)cc(C(F)(F)F)c12` [4-Ethoxy-2-piperazin-1-yl-9-trifluoromethyl-7-(3,4,5-trimethoxy-phenyl)-pyrido[3′,2′:4,5]thieno[3,2-d]pyrimidine], the IC50 fell in the range of 2 to 50 nM. Then `CCOc1nc(N2CCNCC2)nc2c1sc1nc(C(C)C)cc(C(C)C)c12` [4-Ethoxy-7,9-di-iso-propyl-2-(piperazin-1-yl)-pyrido[3′,2′:4,5]thieno[3,2-d]pyrimidine], with 2 to 50 nM; and `CCOc1nc(N2CCNCC2)nc2c1sc1nc(-c3ccc(OC)c(OC)c3)cc(C)c12` [4-Ethoxy-7-(3,4-dimethoxy-phenyl)-9-methyl-2-(piperazin-1-yl)-pyrido[3′,2′:4,5]thieno-[3,2-d]pyrimidine], with 2 to 50 nM.

In the case of `CCOc1nc(N2CCNCC2)nc2c1sc1nc(-c3ccc4c(c3)OCO4)cc(C(F)(F)F)c12` [4-Ethoxy-7-(3,4-methylenedioxyphenyl)-2-piperazin-1-yl-9-trifluoromethyl-pyrido[3′,2′:4,5]thieno-[3,2-d]pyrimidine], the IC50 was less than 2 nM. Turning to `CCOc1nc(N2CCNCC2)nc2c1sc1nc(-c3cccc([N+](=O)[O-])c3)cc(C(F)(F)F)c12` [4-Ethoxy-7-(3-nitro-phenyl)-2-piperazin-1-yl-9-trifluoromethyl-pyrido[3′,2′:4,5]thieno[3,2-d]pyrimidine], the IC50 is less than 2 nM. Then `CCOc1nc(N2CCNCC2)nc2c1sc1nc(-c3ccc(-n4cccn4)cc3)cc(C(F)(F)F)c12` [4-Ethoxy-7-(4-(1H-pyrazol-1-yl)-phenyl)-2-piperazin-1-yl-9-trifluoromethyl-pyrido[3′,2′:4,5]thieno[3,2-d]pyrimidine], with less than 2 nM; and `CCOc1nc(N2CCNCC2)nc2c1sc1nc(-c3ccc(-n4cccn4)cc3)cc(CC)c12` [4-Ethoxy-7-(4-(1H-pyrazol-1-yl)-phenyl)-9-ethyl-2-piperazin-1-yl-pyrido[3′,2′:4,5]thieno[3,2-d]pyrimidine], with less than 2 nM.

(Values after patent US8058285B2, “Substituted pyrido [3′, 2′: 4, 5] thieno [3, 2-D] pyrimidines and pyrido [3′, 2′: 4, 5] furo [3, 2-D] pyrimidines used as inhibitors of the PDE-4 and/or the release of TNF-ALPHA” (The Medicines Company (Leipzig) GmbH, priority 2004, dated 2011).)
